# Columns and labels:
# [1] = system: B. anthracis Sterne 7700 pXO1–/pXO2–; test: microbe, parasite or virus in culture; assay type: cell-based; conditions: Bacillus anthracis, 8 h, read-out: MIC50 Gram-positive Bant
# Staph. aureus biofilm = test: Static biofilm assay, Staph. aureus; assay type: cell-based, Staphylococcus aureus; conditions: treating with CIP
# [2] = system: P. aeruginosa PAO1 static biofilms; test: Static biofilm assay, P. aeruginosa; assay type: cell-based, Pseudomonas aeruginosa
# [3] = system: P. aeruginosa purine deoxyribonucleotide levels (bacterial RNR); test: DPA assay for dNTP quantification; assay type: cell-based, P. aeruginosa PAO1; conditions: 5 mM for 3 h, exponential phase, compared to negative control
# [4] = system: P. aeruginosa continuous-flow biofilms; test: Flow cell biofilm assay; assay type: cell-based, Pseudomonas aeruginosa; conditions: COMSTAT analysis
# class Ia RNR (NrdA) = test: NrdA expression by Western immunoblot; assay type: cell-based, P. aeruginosa PAO1; conditions: 5 mM for 3 h, compared to the negative control
compound,measurement,setting,value
"COc1ccc(CNO)c(C)c1 [Compound 17, N-(4-Methoxy-2-methylbenzyl)hydroxylamine]",MIC50,[1],< 15 µg/mL
"O=C(O)c1cn(C2CC2)c2cc(N3CCNCC3)c(F)cc2c1=O [CIP, ciprofloxacin, reference compound]",reduction of Staph. aureus biofilm,Staph. aureus biofilm,around 60%
same,reduction of preestablished biofilm,"[2]; CIP 0.5 μg/mL, positive control",more than 85%
"NC(=O)NO [HU, hydroxyurea, reference compound]",reduction of dNTP levels,[3],65.45%
"Cc1cc(F)ccc1CNO [Compound 12, N-(4-Fluoro-2-methylbenzyl)hydroxylamine]",decrease of biomass and average thickness,[4],more than 30%
same,reduction of dNTP levels,[3],67.50%
same,induction of NrdA expression (fold),class Ia RNR (NrdA),3
same,reduction of established biofilm,"[2]; after 72 h of treatment, highest concentrations",above 55%

# Reference: article PMC6643834 (ACS Omega, 2018)
